Data taken from article PMC6131205, “Controlling the regioselectivity and stereospecificity of FAD-dependent polyamine oxidases with the use of amine-attached guide molecules as conformational modulators” (Bioscience Reports, 2018).

Tests used:
human recombinant APAO = target: T1, human recombinant APAO (Homo sapiens, UniProt Q6QHF9); conditions: cited from earlier work
T1 construct: made in house

SMOX = SMOX (Homo sapiens, UniProt Q9NWM0); parameters: made in house; method as in PMID 17901051, PMID 16354669; conditions: cited from earlier work
Chain of SMOX (Q9NWM0 whole entry): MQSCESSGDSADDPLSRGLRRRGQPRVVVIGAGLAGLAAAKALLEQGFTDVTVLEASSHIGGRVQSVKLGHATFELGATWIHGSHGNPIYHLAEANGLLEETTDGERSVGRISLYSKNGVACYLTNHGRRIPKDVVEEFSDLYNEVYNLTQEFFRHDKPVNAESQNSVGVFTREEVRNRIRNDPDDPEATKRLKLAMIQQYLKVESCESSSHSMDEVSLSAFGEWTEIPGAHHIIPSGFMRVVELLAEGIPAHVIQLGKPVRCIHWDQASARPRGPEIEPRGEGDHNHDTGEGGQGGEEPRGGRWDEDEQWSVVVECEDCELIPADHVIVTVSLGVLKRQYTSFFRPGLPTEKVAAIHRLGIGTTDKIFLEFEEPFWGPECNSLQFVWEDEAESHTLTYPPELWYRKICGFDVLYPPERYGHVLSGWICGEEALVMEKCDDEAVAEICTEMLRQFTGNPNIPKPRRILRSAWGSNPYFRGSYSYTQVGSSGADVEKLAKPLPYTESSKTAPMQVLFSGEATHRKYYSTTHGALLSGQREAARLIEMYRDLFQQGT

Fms1 = Fms1 (Saccharomyces cerevisiae, UniProt P50264); experiment: Substrate kinetics with recombinant Fms1 (HPLC of reaction products);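 further: recombinant polyamine oxidases incubated with substrate, product amines (putrescine, 1,3-diaminopropane or butane-1,3-diamine) quantified by HPLC after post-column o-phthalaldehyde derivatization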
Chain of Fms1 (P50264 whole entry): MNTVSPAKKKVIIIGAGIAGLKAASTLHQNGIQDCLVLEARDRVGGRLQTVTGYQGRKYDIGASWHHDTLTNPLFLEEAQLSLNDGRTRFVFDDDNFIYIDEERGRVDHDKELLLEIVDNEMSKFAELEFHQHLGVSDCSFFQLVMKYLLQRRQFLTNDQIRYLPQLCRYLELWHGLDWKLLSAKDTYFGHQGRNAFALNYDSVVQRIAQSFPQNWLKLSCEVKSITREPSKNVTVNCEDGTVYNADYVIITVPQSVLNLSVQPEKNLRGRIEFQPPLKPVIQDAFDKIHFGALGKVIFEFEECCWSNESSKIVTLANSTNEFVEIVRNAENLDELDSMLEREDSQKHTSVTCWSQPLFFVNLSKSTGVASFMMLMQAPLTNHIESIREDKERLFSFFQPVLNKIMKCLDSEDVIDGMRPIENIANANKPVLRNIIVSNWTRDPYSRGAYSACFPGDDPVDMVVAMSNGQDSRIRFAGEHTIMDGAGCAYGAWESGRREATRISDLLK
Method: HPLC with post-column o-phthalaldehyde-derivatization was used to determine the concentrations of the reaction products Put and 1,3-diaminopropane (DAP) or butane-1,3-diamine respectively as described in [30]. Fms1 activity was determined essentially as described for human recombinant APAO, but reactions were carried out in 100 mM Glycine-NaOH buffer at pH 9.0 in a water bath at +25°C [29, 30].
The reactions were carried out in 1 triplicate at pH 9.0 in 100 mM Glycine-NaOH at +25°C.
values for N -Ac-MeSpd enantiomers were determined by using substrate concentrations of 25, 50,
for Rac-MeSpd 30 min, (R)-MeSpd 20 min and (S)-MeSpd 40 minutes.
The reactions were carried out in triplicate at pH 9.0 in 100 mM Glycine-NaOH at +25°C.
values for MeSpd enantiomers were determined by using substrate concentrations of 100, 300, 600,
1000, 2000 and 4000 M. Recombinant Fms1 was 3.8 g/reaction and the incubation time 60
incubated for 30 min (half of the reaction time of an ordinary sample). E1 cleavage was monitored
by HPLC by measuring Put formation and E2 cleavage by determining butane-1,3-diamine content.

[1] = test system: amine oxidases in rat liver homogenates; experiment: Degradation in rat liver supernatant; type: in vitro ADME; conditions: 20 μM MDL 72527, 5 min preincubation
Method: A Wistar rat liver was frozen in liquid nitrogen. The liver was homogenized (1+3 w/v) with Teflon potter in buffer containing 25 mM Tris/HCl pH 7.4, 1 mM DTT and 0.1 mM EDTA. Resulting homogenate was centrifuged at 12000×g for 30 min at +4°C. Supernatant was divided into two portions and treated as follows: (A) incubated for 5 min at +37°C in a water bath, (B) supplemented with 20 μM MDL 72527 and incubated for 5 min at +37°C in a water bath to inactivate APAO and SMOX. A 20-μl aliquot of supernatant A or B was added in 100 mM Glycine-NaOH pH 9.5, 5 mM DTT with or without 100 μM of studied drug in a total volume of 180 μl. After 10-min incubation at +37°C, 20 μl of 50% sulphosalicylic acid (SSA) containing 100 μM diaminoheptane (DAH) was added to the reaction mixture. The samples were assayed with HPLC as described in [30].

T1 sequence (Q6QHF9 whole entry): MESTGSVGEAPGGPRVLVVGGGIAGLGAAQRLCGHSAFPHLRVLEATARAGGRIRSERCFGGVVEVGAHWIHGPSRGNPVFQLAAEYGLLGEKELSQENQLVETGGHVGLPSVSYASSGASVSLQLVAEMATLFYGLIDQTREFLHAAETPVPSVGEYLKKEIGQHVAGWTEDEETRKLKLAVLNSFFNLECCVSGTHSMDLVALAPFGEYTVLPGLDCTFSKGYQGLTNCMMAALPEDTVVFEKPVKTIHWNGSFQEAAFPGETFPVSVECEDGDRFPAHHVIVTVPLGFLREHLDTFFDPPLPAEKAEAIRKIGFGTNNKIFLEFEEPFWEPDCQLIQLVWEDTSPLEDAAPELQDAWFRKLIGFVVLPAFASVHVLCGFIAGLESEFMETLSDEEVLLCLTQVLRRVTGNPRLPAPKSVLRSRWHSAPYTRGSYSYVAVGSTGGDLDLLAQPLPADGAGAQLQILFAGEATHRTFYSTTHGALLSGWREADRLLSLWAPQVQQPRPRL

Compound | Specificity constant ratio SS/RR (human recombinant APAO; (S,S)-Me2Spm vs (R,R)-Me2Spm) | Specificity constant ratio SS/Spm (human recombinant APAO; (S,S)-Me2Spm vs Spm) | Specificity constant ratio SS/RR (SMOX; (S,S)-Me2Spm vs (R,R)-Me2Spm) | Specificity constant ratio SS/Spm (SMOX; (S,S)-Me2Spm vs Spm) | Specificity constant ratio SS/RR (Fms1; Fms1, (S,S)-Me2Spm vs (R,R)-Me2Spm) | Specificity constant ratio SS/Spm (Fms1; Fms1, (S,S)-Me2Spm vs Spm) | inhibition of analogue degradation in rat liver supernatant [1]
CC(N)CCNCCCCNCCC(C)N [(S,S)-Me2Spm, 2,13-diamino-5,10-diazatetradecane] | 28 | 7.1 | 454 | 2.1 | 3.9 | 0.07 | –
C=C=CCNCCCCNCC=C=C [MDL72527] | – | – | – | – | – | – | Complete inhibition
